One assay deals with T1, human GAL2 receptor (Homo sapiens, UniProt O43603).
T1 construct: expressed in transfected cells
T1 sequence (O43603 1-387): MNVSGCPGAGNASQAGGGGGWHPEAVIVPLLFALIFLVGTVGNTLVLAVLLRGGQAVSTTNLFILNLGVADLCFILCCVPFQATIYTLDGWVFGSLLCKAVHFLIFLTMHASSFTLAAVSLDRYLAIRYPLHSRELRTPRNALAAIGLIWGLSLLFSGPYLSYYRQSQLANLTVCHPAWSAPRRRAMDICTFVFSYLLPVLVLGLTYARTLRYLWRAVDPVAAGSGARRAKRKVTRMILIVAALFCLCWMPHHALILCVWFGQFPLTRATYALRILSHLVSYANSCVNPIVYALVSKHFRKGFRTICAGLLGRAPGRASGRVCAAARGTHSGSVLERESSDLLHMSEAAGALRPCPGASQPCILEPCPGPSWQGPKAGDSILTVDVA
As to the kind of experiment: Radioligand binding at cloned human GAL2 receptor. The settings on record: pyrimidines, read-out: Ki GalR2. On the procedure: The binding properties of the pyrimidines of the present invention were evaluated at the cloned human galanin receptors, GAL1, GAL2, and GAL3, using protocols described herein.
The binding properties of the indolones of the present invention were evaluated at the cloned human galanin receptors, GAL1, GAL2, and GAL3, using protocols described herein.
LM(tk-) cells were stably transfected with the human GAL1 or GAL3 receptor. CHO cells were stably transfected with the human GAL2 receptor.
cDNAs for the human and rat GAL1, and human and rat GAL3 receptors were transfected with a G-418 resistant gene into the mouse fibroblast LM(tk-) cell line by a calcium phosphate transfection method (Cullen, 1987). Stably transfected cells were selected with G-418. Human and rat GAL2 receptors were similarly transfected into CHO cells.
Membranes were harvested from stably transfected LM(tk-) cells. Adherent cells were washed twice in ice-cold phosphate buffered saline (138 mM NaCl, 8.1 mM Na2HPO4, 2.5 mM KCl, 1.2 mM KH2PO4, 0.9 mM CaCl2, 0.5 mM MgCl2, pH 7.4) and lysed by sonication in ice-cold sonication buffer (20 mM Tris-HCl, 5 mM EDTA, pH 7.7). Large particles and debris were cleared by low speed centrifugation (200 x g, 5 min, 4°C). Membranes were collected from the supernatant fraction by centrifugation (32,000 x g, 18 min, 4°C), washed with ice-cold hypotonic buffer, and collected again by centrifugation (32,000 x g, 18 min, 4°C). The final membrane pellet was resuspended by sonication into a small volume of ice-cold binding buffer (-1 ml for every 5 plates: 10 mM NaCl, 20 mM HEPES, 0.22 mM KH2PO4, 1.26 mM CaCl2, 0.81 mM MgSO4, pH 7.4). Protein concentration was measured by the Bradford method (Bradford, 1976) using Bio-Rad Reagent, with bovine serum albumin as a standard. Membranes were held on ice for up to one hour and used fresh, or flash frozen and stored in liquid nitrogen. Membranes were prepared similarly from CHO cells.
Galanin Recentors: Binding assays were performed according to the following published methods: human GAL3 (PCT International Publication No. WO 98/15570), human GAL1 (PCT International Publication No. WO 95/2260), human GAL2 (PCT International Publication No. WO 97/26853).
Binding data were analyzed using nonlinear regression and statistical techniques available in the GraphPAD Prism package (San Diego, CA). Enzymatic assay data were derived from a standard curve of reference compound data.

Another assay has as its target T2, human GAL3 receptor (Homo sapiens, UniProt O60755).
T2 construct: expressed in transfected cells
T2 sequence (O60755 1-368): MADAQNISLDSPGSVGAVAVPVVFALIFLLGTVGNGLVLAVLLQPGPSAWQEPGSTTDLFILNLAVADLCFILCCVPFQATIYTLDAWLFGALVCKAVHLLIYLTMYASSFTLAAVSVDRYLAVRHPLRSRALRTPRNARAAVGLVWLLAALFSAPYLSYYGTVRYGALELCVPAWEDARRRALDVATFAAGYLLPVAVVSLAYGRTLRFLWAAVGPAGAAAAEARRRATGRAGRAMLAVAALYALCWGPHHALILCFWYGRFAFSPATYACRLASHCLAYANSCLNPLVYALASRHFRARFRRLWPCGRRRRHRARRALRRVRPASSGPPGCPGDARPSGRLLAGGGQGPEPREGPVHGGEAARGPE
In words: Radioligand binding at cloned human GAL3 receptor. The note with it: cloned human receptor, read-out: Ki GalR3. An outline of the steps: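 Membranes from LM(tk-) cells stably expressing human GAL3, prepared in binding buffer (HEPES-based, pH 7.4), used for radioligand binding. Solvent at final assay concentration: 3% DMSO for indolones, 1% ethanol/0.09% pluronic F-127 for pyrimidines. Binding data analysed by nonlinear regression.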

Another assay deals with Male Sprague-Dawley rats. In words: Rat Forced Swim Test (FST). Format: in vivo. The note with it: for antidepressant profile in the FST (conclusion): overall conclusion of the study. The protocol: The procedure used in this study was similar to that previously described (Porsolt, et al., 1978), except the water depth (30 cm in this procedure). The greater depth in this test prevented the rats from supporting themselves by touching the bottom of the cylinder with their feet. Swim sessions were conducted by placing rats in individual plexiglass cylinders (46 cm tall x 20 cm in diameter) containing 23-25°C water 30 cm deep (Porsolt, et al. used a depth of only 15 cm; also, see Detke, et al., 1995). Two swim tests were conducted always between 1200 and 1800 hours: an initial 15-min pretest followed 24 h later by a 5-minute test. […] All other test sessions were conducted between 1300 to 1700 hours. Following all swim sessions, rats were removed from the cylinders, dried with paper towels and placed in a heated cage for 15 minutes and returned to their home cages. All test sessions were videotaped using a Panasonic color video camera and recorder for scoring later.
Male Sprague-Dawley rats (Taconic Farms, NY) were used in all experiments. Rats were housed in pairs and maintained on a 12:12-h light-dark cycle. Rats were handled for 5 minutes each day for 5 days prior to behavioral testing.
The rat's behavior was rated at 5 second intervals during the 5 minute test as one of the following: • 1. Immobility- rat remained floating in the water without struggling and was only making those movements necessary to keep its head above water; • 2. Climbing - rat was making active movements with its forepaws in and out of the water, usually directed against the walls; • 3. Swimming - rat was making active swimming motions, more than necessary to merely maintain its head above water, e.g. moving around in the cylinder; and • 4. Diving - entire body of the rat was submerged.
All of the behavior scoring was done by a single rater, who was blind to the treatment condition. The rater was also present in the room throughout the entire test period.
All injections were given using 1 cc tuberculin syringe with 26 3/8 gauge needles (Becton-Dickinson, VWR Scientific, Bridgeport, NJ). The volume of injection was 1 ml/kg.
The drugs were dissolved in 100% N,N-dimethylacetamide. All administrations were given using 1 cc tuberculin syringes, to which a 3 inch, curved, stainless steel gavage needle was attached. The volume of administration was 1 ml/kg.
The compounds were dissolved in 100% N,N-dimethylacetamide. All administrations were given using 1 cc tuberculin syringes, to which a 3 inch, curved, stainless steel gavage needle was attached. The volume of administration was 1 ml/kg.
The forced swim test data (immobility, swimming, climbing, diving) were subjected to a randomized, one-way ANOVA and post hoc tests conducted using the Student-Newman-heuls test. The data were analyzed using the GBSTAT program, version 6.5 (Dynamics Microsystems, Inc., Silver Spring, MD, 1997). All data are presented as means ± S.E.M.

Where [1] appears, read: 1 mg/kg p.o., single administration, 1 hr. before test.
The mark [2] stands for this setting: 3 mg/kg p.o., single administration, 1 hr. before test.
The mark [3] stands for this setting: 10 mg/kg p.o., single administration, 1 hr. before test.
Setting [4] is: 5 mg/kg p.o., single administration, 1 hr. before test.
Where [5] appears, read: 10 mg/kg i.p., single injection, 5 minute test.
Setting [6] is: 10 mg/kg p.o., single administration 24 hours before the test day.
Where [7] appears, read: 3 mg/kg p.o., single administration 24 hours before the test day.

Like-named read-outs stand apart in the source and are kept apart here. Marks after values point to notes of the source that are not given here.

With `CCc1ccccc1N1CCN(c2nc(Nc3ccc(C)cc3)cc(N3CCCCC3)n2)CC1` [Example 26], the Ki on human GAL2 receptor is 4050 nM; on human GAL3 receptor (pyrimidines) it was 85 nM.
In the same order, the values of `Cc1ccc(Nc2cc(N3CCCCC3)nc(NCCc3c[nH]c4ccccc34)n2)cc1` [Example 10] are 865 nM and 100 nM.
With `Cc1ccc(Nc2cc(N(C)C)nc(N(C)c3ccc(C)cc3)n2)cc1` [Example 72], the Ki at human GAL2 receptor was determined as 2080 nM; on human GAL3 receptor (pyrimidines), 132 nM.
In the case of `Cc1ccc(Nc2cc(N3CCCCC3)nc(N3CCN(c4cc(C(F)(F)F)ccn4)CC3)n2)cc1` [Example 32], the inhibition constant (Ki) was 1860 nM on human GAL2 receptor and 145 nM on human GAL3 receptor (pyrimidines).
`CN(C)c1cc(Nc2ccc(Cl)c(Cl)c2)nc(N2CCN(Cc3ccccc3)CC2)n1` [Example 151]: the inhibition constant (Ki) at human GAL3 receptor (pyrimidines) was 11 nM. In the assay with Male Sprague-Dawley rats (setting [1]), the Climbing is given as 2.3 ± 0.6, the Diving was 0.2 ± 0.2, the Immobility was 41 ± 2.0 and the Swimming is 16.8 ± 1.4^d. In addition, in the assay with Male Sprague-Dawley rats (setting [2]), the Climbing is 2.4 ± 0.5, the Diving was found to be 0.3 ± 0.2, the Immobility is on record as 38 ± 2.0^a and the Swimming was 19.5 ± 1.5^e. For the same compound, in the assay with Male Sprague-Dawley rats (setting [3]), the Climbing was 2.2 ± 0.5, the Diving is listed as 0.3 ± 0.2, the Immobility was 39 ± 1.8^b and the Swimming was 18.9 ± 1.5^e. The “antidepressant profile in the FST (conclusion)” value in the assay on Male Sprague-Dawley rats was “resemble those of antidepressants”.
As to `Cc1ccc(Nc2cc(N(C)C)nc(N3CCC(O)(c4ccccc4)CC3)n2)cc1` [Example 80], the inhibition constant Ki on human GAL2 receptor came out at 2480 nM; at human GAL3 receptor (pyrimidines) it was 615 nM.
In the same order, the values of `Cc1ccc(Nc2cc(N3CCCCC3)nc(N(C)c3ccccc3)n2)cc1` [Example 6] are 2160 nM and 248 nM.
Take `CNCCC(Oc1ccc(C(F)(F)F)cc1)c1ccccc1` (stereo not shown) [Fluoxetine, fluoxetine, reference compound]: in the assay with Male Sprague-Dawley rats (setting [4]), the Climbing turned out to be 1.2 ± 0.4, the Diving worked out at 0.0 ± 0.0, the Immobility was 45 ± 1.3^c and the Swimming was 13.9 ± 1.0. For the same compound, in the assay with Male Sprague-Dawley rats (setting [5]), the Climbing is given as 14.3 ± 0.9 counts, the Diving worked out at 0.1 ± 0.1, the Immobility was 21 ± 0.9^a counts and the Swimming was 25 ± 1.2^b counts. Moreover, in the assay on Male Sprague-Dawley rats (setting [6]), the Climbing is 3.3 ± 0.6, the Diving was 0.2 ± 0.1, the Immobility was 35 ± 1.7^a and the Swimming is given as 21.4 ± 1.0^b.
On to `CN(C)c1cc(Nc2ccc(F)c(F)c2F)nc(N2CCN(c3ccccn3)CC2)n1` [Example 198], for which, at human GAL3 receptor (pyrimidines), the inhibition constant Ki came to 560 nM.
Consider `CN(C)c1cc(Nc2cccc(OCc3ccccc3)c2)nc(N2CCN(c3cnccn3)CC2)n1` [Example 179], for which the inhibition constant Ki at human GAL3 receptor (pyrimidines) was found to be 15 nM.
`Cc1ccc(Nc2cc(N(C)C)nc(N3CCN(c4cnccn4)CC3)n2)cc1C` [Example 183]: on human GAL3 receptor (pyrimidines), the Ki worked out at 66 nM.
In the case of `Cc1nc2cc(Nc3cc(N(C)C)nc(N4CCN(Cc5ccccc5)CC4)n3)ccc2s1` [Example 127], the inhibition constant (Ki) on human GAL3 receptor (pyrimidines) was found to be 255 nM.
On to `CN(C)c1cc(Nc2cccc(Cl)c2)nc(N2CCN(Cc3ccccc3)CC2)n1` [Example 160], for which, on human GAL3 receptor (pyrimidines), the Ki stood at 26 nM.
The same measure, in the same setting: the same measure for `Cc1cccc(Nc2cc(N(C)C)nc(Nc3ccccc3)n2)c1` [Example 52]: 570 nM; for `CN(C)c1cc(Nc2ccc3c(c2)OCCO3)nc(N2CCN(c3ccccn3)CC2)n1` [Example 119]: 540 nM.
With `O=C1/C(=N\c2ccc(Cl)c(Cl)c2)c2ccccc2N1c1cccc(C(F)(F)F)c1` [Example 256, (3Z)-3-[(3,4-DICHLOROPHENYL)IMINO]-1-[3-(TRIFLUOROMETHYL)PHENYL]-1,3-DIHYDRO-2H-INDOL-2-ONE], the inhibitory constant (Ki) on human GAL3 receptor (indolones) is 18 nM.
On the same count and under the same terms, for `O=C1/C(=N\c2cccc3ncccc23)c2ccccc2N1c1ccccc1` [Example 282, (3Z)-1-PHENYL-3-(5-QUINOLINYLIMINO)-1,3-DIHYDRO-2H-INDOL-2-ONE] the value was 333 nM.
Regarding `CN(C)c1cc(Nc2ccc(C(F)(F)F)cc2Cl)nc(N2CCN(c3ccccn3)CC2)n1` [Example 136], the Ki on human GAL3 receptor (pyrimidines) is 25 nM.
Consider `O=C1/C(=N\c2ccc3ncsc3c2)c2ccccc2N1c1ccccc1` [Example 299, (3Z)-3-(1,3-BENZOTHIAZOL-6-YLIMINO)-1-PHENYL-1,3-DIHYDRO-2H-INDOL-2-ONE], for which the Ki at human GAL3 receptor (indolones) came out at 377 nM.
With `O=C1/C(=N\c2ccc(Cl)c(Cl)c2)c2ccccc2N1c1ccsc1` [Example 272, (3Z)-3-[(3,4-DICHLOROPHENYL)IMINO]-1-(3-THIENYL)-1,3-DIHYDRO-2H-INDOL-2-ONE], on human GAL3 receptor (indolones), the Ki came to 26 nM. Moreover, in the assay with Male Sprague-Dawley rats (setting [7]), the Climbing worked out at 3.9 ± 0.6, the Diving is 0.6 ± 0.4, the Immobility is recorded as 33 ± 1.8^a and the Swimming is 22.9 ± 1.3^b. In the assay on Male Sprague-Dawley rats, the “antidepressant profile in the FST (conclusion)” value was “has the profile of an antidepressant”.

For the origin of these results see patent EP2140864A2 (H. Lundbeck A/S, priority 2001, dated 2002).
